One series relates to SARS-CoV-2 trVLP. The format is cell-based.
For another series, the system named is Caco-2-N cells. The series can be described thus: in vitro. The format is cell-based, human. The settings on record: Fig 6B-6E, at tested concentrations, CellTiter-Glo. Here is the method:
(§1) Caco-2-N cells were seeded into 96-well plate (1×10^3 cells/well). After 12 hours, cells were treated with drugs with different concentrations. Cell viability was measured two days post treatment with CellTiter-Glo Luminescent Cell Viability Assay kit (Promega, G7570) following standard protocol. In brief, cells in 100 μl culture medium were added with 100 μl CellTiter-Glo reagent. After 15 minutes, luminescence was recorded with GloMax (Promega). CC50 was determined using logarithmic interpolation using GraphPad Prism software version 7.0.
(Cellular ATP, detected with luciferase, serves as a proxy for viable cell number.)

In series [1] the test system is avian infectious bronchitis virus (IBV). The following applies: cited from earlier work.
Series [2] deals with SARS-CoV-2 strain nCoV-SH01. As to the kind of experiment: microbe, parasite or virus in culture. Format: cell-based.
Another series relates to HCoV-OC43. The following applies: cited from earlier work.
Another series relates to SARS-CoV-2. The following applies: cited from earlier work.
Another series can be described thus: in vitro. The settings on record: human, n.d. = not detected. Format: cell-based, human. Here is the method: as §1
The subject of the next series is SARS-CoV-2 GFP/ΔN trVLP. The format is cell-based.
[3] abbreviates: Severe acute respiratory syndrome coronavirus 2, A549-ACE2.

Where two headings read alike, the source gives them in different places.

On to `[Cl-].[Li+]` [LiCl], for which the “effect on GFP expression (trVLP production)” value in the series on SARS-CoV-2 trVLP is recorded as “inhibit GFP expression in a dose-dependent manner”.

Consider GC376, for which, in the series on Caco-2-N cells, the cytotoxic effect entry is listed as “no apparent cytotoxic effect”.

Usually IC50 stands for the concentration that gives 50% inhibition. On to Monensin sodium, for which the “inhibition of IBV infection” value in series [1] is listed as “blocks avian infectious bronchitis virus (IBV) infection”. The IC50 in series [2] (read-out: IC50) amounted to 632 nM. For the same compound, the “inhibition of HCoV-OC43 infection” value with HCoV-OC43 is “inhibit HCoV-OC43 infection”. As a reminder, the CC50 is the concentration giving 50% cytotoxicity. For `CC[C@@H](C(=O)[C@@H](C)[C@@H](O)[C@H](C)[C@@H]1O[C@@H]([C@@H](CC)C(=O)O)CC[C@@H]1C)[C@H]1O[C@]2(C=C[C@@H](O)[C@]3(CC[C@@](C)([C@H]4CC[C@](O)(CC)[C@H](C)O4)O3)O2)[C@H](C)C[C@@H]1C` [Salinomycin], in series [2], the “selectivity index (SI = CC50/IC50)” value is recorded as 7.13. In series [2] (setting [3]), this compound came in with an IC50 of 2840 nM. In addition, the “inhibition of HCoV-OC43 infection” value in the series on HCoV-OC43 is given as “inhibit HCoV-OC43 infection”. For the same compound, the “antiviral activity against SARS-CoV-2 infection in vitro” value in the series with SARS-CoV-2 was “potent antiviral activity”. In addition, the CC50 in “in vitro” (Fig 7G hit compounds, cell line for this CC50 not stated) turned out to be 20200 nM. Take `CC(C)c1nc(CN(C)C(=O)N[C@H](C(=O)N[C@@H](Cc2ccccc2)C[C@H](O)[C@H](Cc2ccccc2)NC(=O)OCc2cncs2)C(C)C)cs1` [Ritonavir]: the cytotoxic effect result in the series with Caco-2-N cells is on record as “serious cytotoxicity at the IC50 concentration”. `Cc1cccc(C)c1OCC(=O)N[C@@H](Cc1ccccc1)[C@@H](O)C[C@H](Cc1ccccc1)NC(=O)[C@H](C(C)C)N1CCCNC1=O` [Lopinavir]: the “Selectivity Index (SI)” value with SARS-CoV-2 GFP/ΔN trVLP is 2.18. Besides, in the series with Caco-2-N cells, the cytotoxic effect entry is given as “serious cytotoxicity at the IC50 concentration”. The same compound came in with a CC50 in the series “in vitro” (Fig 6F, CellTiter-Glo, two days treatment) of 19100 nM. Take `CO[C@@H]1C[C@@H](C[C@H]2CC[C@H](C)[C@H]([C@@H](C)C(=O)O)O2)O[C@]2(O[C@](C)([C@H]3CC[C@@](C)([C@@H]4O[C@@H]([C@H]5O[C@@](O)(CO)[C@H](C)C[C@@H]5C)C[C@@H]4C)O3)C[C@H]2C)[C@@H]1C` [Nigericin sodium]: the IC50 in series [2] (read-out: IC50) was determined as 11200 nM.

Take `CCC(CC)COC(=O)[C@H](C)N[P@](=O)(OC[C@H]1O[C@@](C#N)(c2ccc3c(N)ncnn23)[C@H](O)[C@@H]1O)Oc1ccccc1` [Remdesivir]: the cytotoxic effect result in the series with Caco-2-N cells is recorded as “no apparent cytotoxic effect”.

Take `Cn1cc(C2=C(c3ccc(Cl)cc3Cl)C(=O)NC2=O)c2ccccc21` [SB216763]: in the series on SARS-CoV-2 trVLP, the “effect on GFP expression (trVLP production)” value was “inhibit GFP expression in a dose-dependent manner”.

With Tubeimoside I, the IC50 in series [2] (read-out: IC50) is 1370 nM. In turn, `O[C@H]1[C@H]2c3cc4c(cc3CN3CCC(=C[C@@H]1O)[C@H]23)OCO4` [Lycorine chloride] yielded an IC50 in series [2] (setting [3]) of 773 nM. For the same compound, in the series with HCoV-OC43, the “inhibition of HCoV-OC43 infection” value is recorded as “inhibit HCoV-OC43 infection”.

Values taken from PMC7990224 (PLoS Pathogens, 2021).
